Reference: US8796244B2, “Imidazopyridine derivatives as inhibitors of receptor tyrosine kinases” (Astex Therapeutics Ltd, priority 2008, dated 2014)
Structures can show the parent of a compound that is named as a salt. Where two headings read alike, the source gives them in different places.

Legend:
[1] = system: parental wild-type Ba/F3 cells; assay: Ba/F3 (WT) cell proliferation assay (Alamar Blue); format: cell-based; settings: Mus musculus
[2] = system: LP-1 cell line (FGF-1/Heparin induced pERK); assay: Cell-based pERK ELISA, LP-1 cells; settings: Homo sapiens; for IC50: LP-1, read-out: LP-1 pERK ELISA (μM)
[3] = BaF3, 72 hours, Alamar Blue, read-out: BaF3 WT prolif
[4] = BaF3, read-out: BaF3 WT prolif, % inhibition
[5] = BaF3, 72 h, read-out: BaF3 WT prolif (μM)

Structure (SMILES)	IC50 [2]	IC50 [1, 5]	further results
O=C(NCC(F)(F)F)Nc1cccc(-c2cnc3cc(-c4ccc(NCCO)nn4)ccn23)c1 [Example 67, 1-(3-{7-[6-(2-Hydroxy-ethylamino)-pyridazin-3-yl]-imidazo[1,2-a]pyridin-3-yl}-phenyl)-3-(2,2,2-trifluoro-ethyl)-urea]	0.84 µM		IC50 [1, 3]: 2.1 µM
NC1CCN(c2ccc(-c3ccn4c(-c5cccc(NC(=O)NCC(F)(F)F)c5)cnc4c3)nn2)CC1 [Example 75, 1-(3-{7-[6-(4-Amino-piperidin-1-yl)-pyridazin-3-yl]-imidazo[1,2-a]pyridin-3-yl}-phenyl)-3-(2,2,2-trifluoro-ethyl)-urea tris-trifluoroacetate]	0.63 µM		inhibition at 10 µM [1, 4]: 32%
CN1CCC(Nc2ccc(-c3ccn4c(-c5cccc(NC(=O)NCC(F)(F)F)c5)cnc4c3)nn2)CC1 [Example 76, 1-(3-{7-[6-(1-Methyl-piperidin-4-ylamino)-pyridazin-3-yl]-imidazo[1,2-a]pyridin-3-yl}-phenyl)-3-(2,2,2-trifluoro-ethyl)-urea tri-hydrochloride]	0.51 µM		inhibition at 10 µM [1, 4]: 26%
O=C(NCC(F)(F)F)Nc1cccc(-c2cnc3cc(-c4cccnc4)ccn23)c1 [Example 78, 1-[3-(7-Pyridin-3-yl-imidazo[1,2-a]pyridin-3-yl)-phenyl]-3-(2,2,2-trifluoro-ethyl)-urea]	0.017 µM		IC50 [1, 3]: 0.15 µM
CN1CCN(c2ncc(-c3ccn4c(-c5cccc(NC(=O)NCC(F)(F)F)c5)cnc4c3)cn2)CC1 [Example 79, 1-(3-{7-[2-(4-Methyl-piperazin-1-yl)-pyrimidin-5-yl]-imidazo[1,2-a]pyridin-3-yl}-phenyl)-3-(2,2,2-trifluoro-ethyl)-urea bis-formate]	0.035 µM	0.4 µM	
COCCNc1ccc(-c2ccn3c(-c4cccc(NC(=O)NCC(F)(F)F)c4)cnc3c2)nn1 [Example 80, 1-(3-{7-[6-(2-Methoxy-ethylamino)-pyridazin-3-yl]-imidazo[1,2-a]pyridin-3-yl}-phenyl)-3-(2,2,2-trifluoro-ethyl)-urea hydrochloride]	0.039 µM		inhibition at 10 µM [1, 4]: 0%
CC(C)(CO)Nc1ccc(-c2ccn3c(-c4cccc(NC(=O)NCC(F)(F)F)c4)cnc3c2)nn1 [Example 81, 1-(3-{7-[6-(2-Hydroxy-1,1-dimethyl-ethylamino)-pyrid-azin-3-yl]-1,7-dihydro-imidazo[1,2-a]pyridin-3-yl}-phenyl)-3-(2,2,2-trifluoro-ethyl)-urea hydrochloride]	0.028 µM		inhibition at 3 µM [1, 4]: 20%
Nc1cnc(-c2ccn3c(-c4cccc(NC(=O)NCC(F)(F)F)c4)cnc3c2)cn1 [Example 85, 1-{3-[7-(5-Amino-pyrazin-2-yl)-imidazo[1,2-a]pyridin-3-yl]-phenyl}-3-(2,2,2-trifluoro-ethyl)-urea formate]	0.065 µM	0.17 µM	
Cn1ccc(C#Cc2ccn3c(-c4cccc(NC(=O)NCC(F)(F)F)c4)cnc3c2)n1 [Example 86, 1-{3-[7-(1-Methyl-1H-pyrazol-3-ylethynyl)-imidazo[1,2-a]pyridin-3-yl]-phenyl}-3-(2,2,2-trifluoro-ethyl)-urea formate]	0.04 µM	1.9 µM	
O=C(NCC(F)(F)F)Nc1cccc(-c2cnc3cc(-c4cnc(N5CC(F)(F)C5)nc4)ccn23)c1 [Example 87, 1-(3-{7-[2-(3,3-Difluoro-azetidin-1-yl)-pyrimidin-5-yl]-imidazo[1,2-a]pyridin-3-yl}-phenyl)-3-(2,2,2-trifluoro-ethyl)-urea bis-trifluoroacetate]	0.072 µM	0.41 µM	
O=C(NCC(F)(F)F)Nc1cccc(-c2cnc3cc(-c4ccnnc4)ccn23)c1 [Example 88, 1-[3-(7-Pyridazin-4-yl-imidazo[1,2-a]pyridin-3-yl)-phenyl]-3-(2,2,2-trifluoro-ethyl)-urea formate]			inhibition at 10 µM [1, 4]: 0%; inhibition at 10 µM ([2]; LP-1, read-out: LP-1 pERK ELISA, % inhibition): 16%
COc1cnc(-c2ccn3c(-c4cccc(NC(=O)NCC(F)(F)F)c4)cnc3c2)cn1 [Example 89, 1-{3-[7-(5-Methoxy-pyrazin-2-yl)-imidazo[1,2-a]pyridin-3-yl]-phenyl}-3-(2,2,2-trifluoro-ethyl)-urea]	0.073 µM		IC50 [1, 3]: 0.097 µM
COc1cncc(-c2ccn3c(-c4cccc(NC(=O)NCC(F)(F)F)c4)cnc3c2)n1 [Example 90, 1-{3-[7-(6-Methoxy-pyrazin-2-yl)-imidazo[1,2-a]pyridin-3-yl]-phenyl}-3-(2,2,2-trifluoro-ethyl)-urea formate]	0.092 µM	0.76 µM	
Cc1ccc(-c2ccn3c(-c4cccc(NC(=O)NCC(F)(F)F)c4)cnc3c2)nc1 [Example 91, 1-{3-[7-(5-Methyl-pyridin-2-yl)-imidazo[1,2-a]pyridin-3-yl]-phenyl}-3-(2,2,2-trifluoro-ethyl)-urea formate]	0.0079 µM	0.1 µM	
O=C(NCC(F)(F)F)Nc1cccc(-c2cnc3cc(-c4ccc(CO)cn4)ccn23)c1 [Example 92, 1-{3-[7-(5-Hydroxymethyl-pyridin-2-yl)-imidazo[1,2-a]pyridin-3-yl]-phenyl}-3-(2,2,2-trifluoro-ethyl)-urea formate]	0.11 µM	0.53 µM	
Cc1cnc(-c2ccn3c(-c4cccc(NC(=O)NCC(F)(F)F)c4)cnc3c2)cn1 [Example 93, 1-{3-[7-(5-Methyl-pyrazin-2-yl)-imidazo[1,2-a]pyridin-3-yl]-phenyl}-3-(2,2,2-trifluoro-ethyl)-urea]	0.065 µM		IC50 [1, 3]: 0.043 µM
O=C1CN(c2ncc(-c3ccn4c(-c5cccc(NC(=O)NCC(F)(F)F)c5)cnc4c3)cn2)CCN1 [Example 94, 1-(3-{7-[2-(3-Oxo-piperazin-1-yl)-pyrimidin-5-yl]-imidazo[1,2-a]pyridin-3-yl}-phenyl)-3-(2,2,2-trifluoro-ethyl)-urea hydrochloride]	0.95 µM	5.8 µM	
O=C1CN(c2ccc(-c3ccn4c(-c5cccc(NC(=O)NCC(F)(F)F)c5)cnc4c3)nn2)CCN1 [Example 95, 1-(3-{7-[6-(3-Oxo-piperazin-1-yl)-pyridazin-3-yl]-imidazo[1,2-a]pyridin-3-yl}-phenyl)-3-(2,2,2-trifluoro-ethyl)-urea bis-hydrochloride]	3.4 µM		inhibition at 10 µM [1, 4]: 0%
O=C(NCC(F)(F)F)Nc1cccc(-c2cnc3cc(-c4ccc(F)cn4)ccn23)c1 [Example 96, 1-{3-[7-(5-Fluoro-pyridin-2-yl)-imidazo[1,2-a]pyridin-3-yl]-phenyl}-3-(2,2,2-trifluoro-ethyl)-urea bis-hydrochloride]	0.0063 µM	1.7 µM	
Cc1ccnc(-c2ccn3c(-c4cccc(NC(=O)NCC(F)(F)F)c4)cnc3c2)c1 [Example 97, 1-{3-[7-(4-Methyl-pyridin-2-yl)-imidazo[1,2-a]pyridin-3-yl]-phenyl}-3-(2,2,2-trifluoro-ethyl)-urea bis-hydrochloride]	0.0081 µM	0.44 µM	
Cc1cccc(-c2ccn3c(-c4cccc(NC(=O)NCC(F)(F)F)c4)cnc3c2)n1 [Example 98, 1-{3-[7-(6-Methyl-pyridin-2-yl)-imidazo[1,2-a]pyridin-3-yl]-phenyl}-3-(2,2,2-trifluoro-ethyl)-urea bis-hydrochloride]	0.02 µM	0.7 µM	
CCOc1cccc(-c2ccn3c(-c4cccc(NC(=O)NCC(F)(F)F)c4)cnc3c2)n1 [Example 99, 1-{3-[7-(6-Ethoxy-pyridin-2-yl)-imidazo[1,2-a]pyridin-3-yl]-phenyl}-3-(2,2,2-trifluoro-ethyl)-urea bis-hydrochloride]	0.063 µM	0.32 µM	
Cc1cncc(-c2ccn3c(-c4cccc(NC(=O)NCC(F)(F)F)c4)cnc3c2)n1 [Example 100, 1-{3-[7-(6-Methyl-pyrazin-2-yl)-imidazo[1,2-a]pyridin-3-yl]-phenyl}-3-(2,2,2-trifluoro-ethyl)-urea]	0.09 µM		IC50 [1, 3]: 0.97 µM
COc1cccc(-c2ccn3c(-c4cccc(NC(=O)NCC(F)(F)F)c4)cnc3c2)n1 [Example 101, 1-{3-[7-(6-Methoxy-pyridin-2-yl)-imidazo[1,2-a]pyridin-3-yl]-phenyl}-3-(2,2,2-trifluoro-ethyl)-urea]	0.055 µM		IC50 [1, 3]: 0.16 µM
Nc1nc(-c2ccn3c(-c4cccc(NC(=O)NCC(F)(F)F)c4)cnc3c2)ncc1F [Example 102, 1-{3-[7-(4-Amino-5-fluoro-pyrimidin-2-yl)-imidazo[1,2-a]pyridin-3-yl]-phenyl}-3-(2,2,2-trifluoro-ethyl)-urea bis-hydrochloride]	0.0939 µM	2.3 µM	
Nc1ccnc(-c2ccn3c(-c4cccc(NC(=O)NCC(F)(F)F)c4)cnc3c2)c1 [Example 108, 1-{3-[7-(4-Amino-pyridin-2-yl)-imidazo[1,2-a]pyridin-3-yl]-phenyl}-3-(2,2,2-trifluoro-ethyl)-urea diformate]	1.2 µM		inhibition at 10 µM [1, 4]: 46%
Nc1ccnc(-c2ccn3c(-c4cccc(NC(=O)NCC(F)(F)F)c4)cnc3c2)n1 [Example 110, 1-{3-[7-(4-Amino-pyrimidin-2-yl)-imidazo[1,2-a]pyridin-3-yl]-phenyl}-3-(2,2,2-trifluoro-ethyl)-urea]	0.0917 µM		inhibition at 10 µM [1, 4]: 43%
O=C(NCC(F)(F)F)Nc1cccc(-c2cnc3cc(-c4ccc(CCO)cc4)ccn23)c1 [Example 111, 1-(3-{7-[4-(2-Hydroxy-ethyl)-phenyl]-imidazo[1,2-a]pyridin-yl}-phenyl)-3-(2,2,2-trifluoro-ethyl)-urea formate]	0.016 µM	0.18 µM	
CN(C)c1ccc(-c2ccn3c(-c4cccc(NC(=O)NCC(F)(F)F)c4)cnc3c2)nn1 [Example 113, 1-{3-[7-(6-Dimethylamino-pyridazin-3-yl)-imidazo[1,2-a]pyridin-3-yl]-phenyl}-3-(2,2,2-trifluoro-ethyl)-urea formate]	0.016 µM	1.4 µM	
